In patent US10131652B2, “Pyrimidinyloxy benzene derivatives as herbicides” (E. I. DU PONT DE NEMOURS AND COMPANY, priority 2014, dated 2018):

Legend:
Assay type in all cases: in vivo
[1] = system: Italian ryegrass (Lolium multiflorum); test: Test B pre-/postemergence plant response
Summary of the method: (§1)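 Seeds in loam–sand blend given preemergence soil spray; separately, plants at one- to two-leaf stage (2–10 cm) sprayed postemergence, compounds in non-phytotoxic solvent with surfactant. Injury rated visually versus untreated controls after ~10 days in greenhouse, 0 (no effect) to 100 (complete control).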

[2] = system: barnyardgrass (Echinochloa crus-galli); test: Test B pre-/postemergence plant response
Summary of the method: as §1

[3] = system: corn (Zea mays); test: Test B pre-/postemergence plant response
Summary of the method: as §1

[4] = system: giant foxtail (Setaria faberii); test: Test B pre-/postemergence plant response
Summary of the method: as §1

[5] = system: kochia (Kochia scoparia); test: Test B pre-/postemergence plant response
Summary of the method: as §1

[6] = system: pigweed (Amaranthus retroflexus); test: Test B pre-/postemergence plant response
Summary of the method: as §1

[7] = system: ragweed (common ragweed, Ambrosia elatior); test: Test B pre-/postemergence plant response
Summary of the method: as §1

[8] = system: wheat (Triticum aestivum); test: Test B pre-/postemergence plant response
Summary of the method: as §1

[9] = system: blackgrass (Alopecurus myosuroides); test: Test B postemergence plant response
Summary of the method: (§2)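 Weeds grown in loam soil/sand pots were sprayed postemergence at 2 to 10 cm height, one- to two-leaf stage. After approximately 10 days in greenhouse, injury was rated visually against untreated controls on a 0 (no effect) to 100 (complete control) scale; dash means no test result.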

[10] = system: galium (catchweed bedstraw, Galium aparine); test: Test B postemergence plant response
Summary of the method: as §2

[11] = system: barnyardgrass (Echinochloa crus-galli); test: Test C flooded paddy test plant response; conditions: Flood, 250 g ai/ha; scale of 0 to 100 where 0 is no effect and 100 is complete control; 13 to 15 days
Summary of the method: (§3)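 Flooded-pot format, 3 cm water over soil maintained for the test duration; test compounds dispensed into the water at the 2-leaf stage. Greenhouse holding 13 to 15 days. Plants evaluated visually relative to untreated controls, 0 meaning no effect and 100 complete control.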

[12] = system: ducksalad (Heteranthera limosa); test: Test C flooded paddy test plant response; conditions: Flood, 250 g ai/ha; scale of 0 to 100 where 0 is no effect and 100 is complete control; 13 to 15 days
Summary of the method: as §3

[13] = system: rice (Oryza sativa); test: Test C flooded paddy test plant response; conditions: Flood, 250 g ai/ha; scale of 0 to 100 where 0 is no effect and 100 is complete control; 13 to 15 days
Summary of the method: as §3

[14] = system: small-flower umbrella sedge (Cyperus difformis); test: Test C flooded paddy test plant response; conditions: Flood, 250 g ai/ha; scale of 0 to 100 where 0 is no effect and 100 is complete control; 13 to 15 days
Summary of the method: as §3

[15] = 31 g ai/ha, Preemergence, 0 to 100 scale where 0 is no effect and 100 is complete control
[16] = 125 g ai/ha, postemergence, 0 to 100 scale, 0 no effect, 100 complete control
[17] = Postemergence, 31 g ai/ha, 0 to 100 scale (0 no effect, 100 complete control)
[18] = Preemergence, 125 g ai/ha, 0 to 100 scale (0 no effect, 100 complete control)
[19] = Postemergence, 500 g ai/ha, 0 to 100 scale (0 no effect, 100 complete control)
[20] = Preemergence, 500 g ai/ha, 0 to 100 scale where 0 is no effect and 100 is complete control
[21] = Postemergence, 1000 g ai/ha, 0 to 100 scale (0 no effect, 100 complete control)
[22] = Preemergence, 1000 g ai/ha, 0 to 100 scale (0 no effect, 100 complete control)

Clc1cnc(Oc2ccccc2-c2cc(Cl)cnn2)nc1 [Compound 189]
Plant response rating, Ryegrass, Italian [1, 15]: 0 | Plant response rating, Ryegrass, Italian [1, 16]: 0 | Plant response rating, Ryegrass, Italian [1, 17]: 0 | Ryegrass, Italian plant response rating [1, 18]: 0 | Plant response rating, Barnyardgrass [2, 15]: 0 | Plant response rating, Barnyardgrass [2, 16]: 0 | Plant response rating, Barnyardgrass [2, 17]: 0 | Barnyardgrass plant response rating [2, 18]: 0 | Plant response rating, Corn [3, 16]: 0 | Plant response rating, Corn [3, 17]: 0 | Plant response rating, Foxtail, Giant [4, 15]: 0 | Plant response rating, Foxtail, Giant [4, 16]: 0 | Plant response rating, Foxtail, Giant [4, 17]: 0 | Foxtail, Giant plant response rating [4, 18]: 0 | Plant response rating, Kochia [5, 15]: 0 | Plant response rating, Kochia [5, 16]: 0 | Plant response rating, Kochia [5, 17]: 0 | Kochia plant response rating [5, 18]: 0 | Plant response rating, Pigweed [6, 15]: 0 | Plant response rating, Pigweed [6, 16]: 0 | Plant response rating, Pigweed [6, 17]: 0 | Pigweed plant response rating [6, 18]: 0 | Plant response rating, Ragweed [7, 15]: 0 | Plant response rating, Ragweed [7, 16]: 0 | Plant response rating, Ragweed [7, 17]: 0 | Ragweed plant response rating [7, 18]: 0 | Plant response rating, Wheat [8, 16]: 0 | Plant response rating, Wheat [8, 17]: 0 | Plant response rating, Blackgrass [9, 16]: 0 | Plant response rating, Blackgrass [9, 17]: 0 | Plant response rating, Galium [10, 16]: 0 | Plant response rating, Galium [10, 17]: 0 | Barnyardgrass plant response rating [11]: 0 | Ducksalad plant response rating [12]: 0 | Rice plant response rating [13]: 0 | Sedge, Umbrella plant response rating [14]: 0

Clc1cnc(Oc2ccccc2-c2cc(Cl)ncn2)nc1 [Compound 190]
Plant response rating, Ryegrass, Italian [1, 16]: 0 | Plant response rating, Ryegrass, Italian [1, 19]: 0 | Ryegrass, Italian plant response rating [1, 18]: 0 | Plant response rating, Ryegrass, Italian [1, 20]: 0 | Plant response rating, Barnyardgrass [2, 16]: 0 | Plant response rating, Barnyardgrass [2, 19]: 0 | Barnyardgrass plant response rating [2, 18]: 0 | Plant response rating, Barnyardgrass [2, 20]: 0 | Plant response rating, Corn [3, 16]: 0 | Plant response rating, Corn [3, 19]: 0 | Plant response rating, Foxtail, Giant [4, 16]: 0 | Plant response rating, Foxtail, Giant [4, 19]: 0 | Foxtail, Giant plant response rating [4, 18]: 0 | Plant response rating, Foxtail, Giant [4, 20]: 10 | Plant response rating, Kochia [5, 16]: 0 | Plant response rating, Kochia [5, 19]: 0 | Kochia plant response rating [5, 18]: 0 | Plant response rating, Kochia [5, 20]: 0 | Plant response rating, Pigweed [6, 16]: 0 | Plant response rating, Pigweed [6, 19]: 20 | Pigweed plant response rating [6, 18]: 0 | Plant response rating, Pigweed [6, 20]: 10 | Plant response rating, Ragweed [7, 16]: 10 | Plant response rating, Ragweed [7, 19]: 10 | Ragweed plant response rating [7, 18]: 0 | Plant response rating, Ragweed [7, 20]: 0 | Plant response rating, Wheat [8, 16]: 0 | Plant response rating, Wheat [8, 19]: 0 | Plant response rating, Blackgrass [9, 16]: 0 | Plant response rating, Blackgrass [9, 19]: 0 | Plant response rating, Galium [10, 16]: 0 | Plant response rating, Galium [10, 19]: 10 | Barnyardgrass plant response rating [11]: 0 | Ducksalad plant response rating [12]: 0 | Rice plant response rating [13]: 0 | Sedge, Umbrella plant response rating [14]: 0

Fc1cnc(Oc2ccccc2-c2cc(Cl)sn2)nc1 [Compound 193]
Plant response rating, Ryegrass, Italian [1, 21]: 30 | Plant response rating, Ryegrass, Italian [1, 22]: 0 | Plant response rating, Barnyardgrass [2, 21]: 90 | Plant response rating, Barnyardgrass [2, 22]: 100 | Plant response rating, Corn [3, 21]: 10 | Plant response rating, Foxtail, Giant [4, 21]: 90 | Plant response rating, Foxtail, Giant [4, 22]: 100 | Plant response rating, Kochia [5, 21]: 100 | Plant response rating, Kochia [5, 22]: 100 | Plant response rating, Pigweed [6, 21]: 100 | Plant response rating, Pigweed [6, 22]: 100 | Plant response rating, Ragweed [7, 21]: 90 | Plant response rating, Ragweed [7, 22]: 80 | Plant response rating, Wheat [8, 21]: 20 | Plant response rating, Blackgrass [9, 21]: 90 | Plant response rating, Galium [10, 21]: 100 | Barnyardgrass plant response rating [11]: 0 | Ducksalad plant response rating [12]: 65 | Rice plant response rating [13]: 0 | Sedge, Umbrella plant response rating [14]: 0

Cc1cnc(Oc2ccccc2-c2cc(Cl)sn2)nc1 [Compound 194]
Plant response rating, Ryegrass, Italian [1, 21]: 50 | Plant response rating, Ryegrass, Italian [1, 22]: 50 | Plant response rating, Barnyardgrass [2, 21]: 100 | Plant response rating, Barnyardgrass [2, 22]: 100 | Plant response rating, Corn [3, 21]: 60 | Plant response rating, Foxtail, Giant [4, 21]: 90 | Plant response rating, Foxtail, Giant [4, 22]: 100 | Plant response rating, Kochia [5, 21]: 100 | Plant response rating, Kochia [5, 22]: 100 | Plant response rating, Pigweed [6, 21]: 90 | Plant response rating, Pigweed [6, 22]: 100 | Plant response rating, Ragweed [7, 21]: 80 | Plant response rating, Ragweed [7, 22]: 30 | Plant response rating, Wheat [8, 21]: 20 | Plant response rating, Blackgrass [9, 21]: 90 | Plant response rating, Galium [10, 21]: 100 | Barnyardgrass plant response rating [11]: 0 | Ducksalad plant response rating [12]: 80 | Rice plant response rating [13]: 0 | Sedge, Umbrella plant response rating [14]: 0

C=C(C)c1cc(-c2ccccc2Oc2ncc(Cl)cn2)on1 [Compound 196]
Plant response rating, Ryegrass, Italian [1, 15]: 0 | Plant response rating, Ryegrass, Italian [1, 16]: 0 | Plant response rating, Ryegrass, Italian [1, 17]: 0 | Ryegrass, Italian plant response rating [1, 18]: 0 | Plant response rating, Barnyardgrass [2, 15]: 0 | Plant response rating, Barnyardgrass [2, 16]: 10 | Plant response rating, Barnyardgrass [2, 17]: 0 | Barnyardgrass plant response rating [2, 18]: 10 | Plant response rating, Corn [3, 16]: 0 | Plant response rating, Corn [3, 17]: 0 | Plant response rating, Foxtail, Giant [4, 15]: 0 | Plant response rating, Foxtail, Giant [4, 16]: 10 | Plant response rating, Foxtail, Giant [4, 17]: 0 | Foxtail, Giant plant response rating [4, 18]: 20 | Plant response rating, Kochia [5, 15]: 0 | Plant response rating, Kochia [5, 16]: 40 | Plant response rating, Kochia [5, 17]: 0 | Kochia plant response rating [5, 18]: 0 | Plant response rating, Pigweed [6, 15]: 0 | Plant response rating, Pigweed [6, 16]: 60 | Plant response rating, Pigweed [6, 17]: 20 | Pigweed plant response rating [6, 18]: 10 | Plant response rating, Ragweed [7, 15]: 0 | Plant response rating, Ragweed [7, 16]: 20 | Plant response rating, Ragweed [7, 17]: 10 | Ragweed plant response rating [7, 18]: 0 | Plant response rating, Wheat [8, 16]: 0 | Plant response rating, Wheat [8, 17]: 0 | Plant response rating, Blackgrass [9, 16]: 0 | Plant response rating, Blackgrass [9, 17]: 0 | Plant response rating, Galium [10, 16]: 100 | Plant response rating, Galium [10, 17]: 60 | Barnyardgrass plant response rating [11]: 30 | Ducksalad plant response rating [12]: 55 | Rice plant response rating [13]: 0 | Sedge, Umbrella plant response rating [14]: 70

C=C(C)c1cc(-c2ccccc2Oc2ncc(Br)cn2)on1 [Compound 197]
Plant response rating, Ryegrass, Italian [1, 15]: 0 | Plant response rating, Ryegrass, Italian [1, 16]: 0 | Plant response rating, Ryegrass, Italian [1, 17]: 0 | Ryegrass, Italian plant response rating [1, 18]: 0 | Plant response rating, Barnyardgrass [2, 15]: 0 | Plant response rating, Barnyardgrass [2, 16]: 0 | Plant response rating, Barnyardgrass [2, 17]: 0 | Barnyardgrass plant response rating [2, 18]: 0 | Plant response rating, Corn [3, 16]: 0 | Plant response rating, Corn [3, 17]: 0 | Plant response rating, Foxtail, Giant [4, 15]: 0 | Plant response rating, Foxtail, Giant [4, 16]: 0 | Plant response rating, Foxtail, Giant [4, 17]: 0 | Foxtail, Giant plant response rating [4, 18]: 0 | Plant response rating, Kochia [5, 15]: 0 | Plant response rating, Kochia [5, 16]: 0 | Plant response rating, Kochia [5, 17]: 0 | Kochia plant response rating [5, 18]: 0 | Plant response rating, Pigweed [6, 15]: 0 | Plant response rating, Pigweed [6, 16]: 10 | Plant response rating, Pigweed [6, 17]: 10 | Pigweed plant response rating [6, 18]: 0 | Plant response rating, Ragweed [7, 15]: 0 | Plant response rating, Ragweed [7, 16]: 0 | Plant response rating, Ragweed [7, 17]: 0 | Ragweed plant response rating [7, 18]: 0 | Plant response rating, Wheat [8, 16]: 0 | Plant response rating, Wheat [8, 17]: 0 | Plant response rating, Blackgrass [9, 16]: 0 | Plant response rating, Blackgrass [9, 17]: 0 | Plant response rating, Galium [10, 16]: 50 | Plant response rating, Galium [10, 17]: 10 | Barnyardgrass plant response rating [11]: 20 | Ducksalad plant response rating [12]: 0 | Rice plant response rating [13]: 0 | Sedge, Umbrella plant response rating [14]: 0
